# Tests used:
# [1] = system: Pseudomonas fluorescens Migula; assay: Metabolic labeling of living bacteria, click chemistry and fluorescence microscopy; format: cell-based; parameters: key: +: strains showing highly distinctive fluorescence on their membrane, indicative of an effective metabolic incorporation of the chemical reporter; −: the absence of labeling; conditions: compound 10 mM, 24 hours, fluorochrome-alkyne click 30 minutes
# Neisseria meningitidis = assay: as above; format: cell-based; parameters: key: +: strains showing highly distinctive fluorescence on their membrane, indicative of an effective metabolic incorporation of the chemical reporter; −: the absence of labeling; conditions: compound 10 mM, 24 hours, fluorochrome-alkyne click 30 minutes
# Staphylococcus epidermis = assay: as above; format: cell-based; parameters: key to labeling (fluorescence on membrane, metabolic incorporation of the chemical reporter): +: strains showing highly distinctive fluorescence on their membrane, indicative of an effective metabolic incorporation of the chemical reporter; −: the absence of labeling
# Serratia marcescens [2] = assay: as above; format: cell-based; parameters: key: +: strains showing highly distinctive fluorescence on their membrane, indicative of an effective metabolic incorporation of the chemical reporter; −: the absence of labeling; conditions: first of two entries (Table 1 order: CIP102446), compound 10 mM, 24 hours, fluorochrome-alkyne click 30 minutes
# Klebsiella pneumoniae [3] = assay: as above; format: cell-based; parameters: key: +: strains showing highly distinctive fluorescence on their membrane, indicative of an effective metabolic incorporation of the chemical reporter; −: the absence of labeling; conditions: second of two entries (Table 1 order: Clinical strain), compound 10 mM, 24 hours, fluorochrome-alkyne click 30 minutes
# Escherichia coli K12 = assay: as above; format: cell-based; parameters: key: +: strains showing highly distinctive fluorescence on their membrane, indicative of an effective metabolic incorporation of the chemical reporter; −: the absence of labeling; conditions: compound 10 mM, 24 hours, fluorochrome-alkyne click 30 minutes
# [4] = system: Salmonella Typhimurium 12023; assay: as above; format: cell-based; parameters: key: +: strains showing highly distinctive fluorescence on their membrane, indicative of an effective metabolic incorporation of the chemical reporter; −: the absence of labeling; conditions: compound 10 mM, 24 hours, fluorochrome-alkyne click 30 minutes
# [5] = system: Staphylococcus aureus aureus; assay: as above; format: cell-based; parameters: key to labeling (fluorescence on membrane, metabolic incorporation of the chemical reporter): +: strains showing highly distinctive fluorescence on their membrane, indicative of an effective metabolic incorporation of the chemical reporter; −: the absence of labeling
# Neisseria gonorrhoeae = assay: as above; format: cell-based; parameters: key to labeling (fluorescence on membrane, metabolic incorporation of the chemical reporter): +: strains showing highly distinctive fluorescence on their membrane, indicative of an effective metabolic incorporation of the chemical reporter; −: the absence of labeling
# [6] = system: Legionella pneumophila sg6; format: cell-based; parameters: key: +: strains showing highly distinctive fluorescence on their membrane, indicative of an effective metabolic incorporation of the chemical reporter; −: the absence of labeling; conditions: compound 10 mM, 24 hours, fluorochrome-alkyne click 30 minutes
# Vibrio cholerae = assay: Metabolic labeling of living bacteria, click chemistry and fluorescence microscopy; format: cell-based; parameters: key: +: strains showing highly distinctive fluorescence on their membrane, indicative of an effective metabolic incorporation of the chemical reporter; −: the absence of labeling; conditions: compound 10 mM, 24 hours, fluorochrome-alkyne click 30 minutes
# [7] = system: Listeria monocytogenes ½a; assay: as above; format: cell-based; parameters: key: +: strains showing highly distinctive fluorescence on their membrane, indicative of an effective metabolic incorporation of the chemical reporter; −: the absence of labeling; conditions: compound 10 mM, 24 hours, fluorochrome-alkyne click 30 minutes
# Serratia marcescens [8] = assay: as above; format: cell-based; parameters: key: +: strains showing highly distinctive fluorescence on their membrane, indicative of an effective metabolic incorporation of the chemical reporter; −: the absence of labeling; conditions: second of two entries (Table 1 order: Clinical strain), compound 10 mM, 24 hours, fluorochrome-alkyne click 30 minutes
# Staphylococcus aureus = assay: as above; format: cell-based; parameters: key to labeling (fluorescence on membrane, metabolic incorporation of the chemical reporter): +: strains showing highly distinctive fluorescence on their membrane, indicative of an effective metabolic incorporation of the chemical reporter; −: the absence of labeling
# Proteus mirabilis = assay: as above; format: cell-based; parameters: key: +: strains showing highly distinctive fluorescence on their membrane, indicative of an effective metabolic incorporation of the chemical reporter; −: the absence of labeling; conditions: compound 10 mM, 24 hours, fluorochrome-alkyne click 30 minutes
# [9] = system: Stenotrophomonas maltophilia; assay: as above; format: cell-based; parameters: key: +: strains showing highly distinctive fluorescence on their membrane, indicative of an effective metabolic incorporation of the chemical reporter; −: the absence of labeling; conditions: compound 10 mM, 24 hours, fluorochrome-alkyne click 30 minutes
# Klebsiella pneumoniae [10] = assay: as above; format: cell-based; parameters: key: +: strains showing highly distinctive fluorescence on their membrane, indicative of an effective metabolic incorporation of the chemical reporter; −: the absence of labeling; conditions: first of two entries (Table 1 order: CIP 101114), compound 10 mM, 24 hours, fluorochrome-alkyne click 30 minutes
# Listeria monocytogenes ½ = assay: as above; format: cell-based; parameters: key to labeling (fluorescence on membrane, metabolic incorporation of the chemical reporter): +: strains showing highly distinctive fluorescence on their membrane, indicative of an effective metabolic incorporation of the chemical reporter; −: the absence of labeling
# Micrococcus luteus = assay: as above; format: cell-based; parameters: key to labeling (fluorescence on membrane, metabolic incorporation of the chemical reporter): +: strains showing highly distinctive fluorescence on their membrane, indicative of an effective metabolic incorporation of the chemical reporter; −: the absence of labeling
# Escherichia coli O86 = assay: as above; format: cell-based; parameters: key: +: strains showing highly distinctive fluorescence on their membrane, indicative of an effective metabolic incorporation of the chemical reporter; −: the absence of labeling; conditions: compound 10 mM, 24 hours, fluorochrome-alkyne click 30 minutes
# Providenda stuartii = assay: as above; format: cell-based, Providencia stuartii; parameters: key: +: strains showing highly distinctive fluorescence on their membrane, indicative of an effective metabolic incorporation of the chemical reporter; −: the absence of labeling; conditions: compound 10 mM, 24 hours, fluorochrome-alkyne click 30 minutes
# Enterococcus faecalis = assay: as above; format: cell-based; parameters: key to labeling (fluorescence on membrane, metabolic incorporation of the chemical reporter): +: strains showing highly distinctive fluorescence on their membrane, indicative of an effective metabolic incorporation of the chemical reporter; −: the absence of labeling
# [11] = compound 10 mM, 24 hours, fluorochrome-alkyne click 30 minutes
structure (smiles),measurement,setting,value
"[N-]=[N+]=NC[C@@H](O)[C@@H](O)[C@H](O)[C@H](O)CC(=O)C(=O)O [Kdo-N3, 8-azido-3,8-dideoxy-D-manno-octulosonate]","labeling (fluorescence on membrane, metabolic incorporation of the chemical reporter)",[1],+
same,"labeling (fluorescence on membrane, metabolic incorporation of the chemical reporter)",Neisseria meningitidis,+
same,assimilation by the bacteria (in words),Staphylococcus epidermis,did not assimilate
same,"labeling (fluorescence on membrane, metabolic incorporation of the chemical reporter)",Staphylococcus epidermis; [11],−
same,"labeling (fluorescence on membrane, metabolic incorporation of the chemical reporter)",Serratia marcescens [2],+
same,"labeling (fluorescence on membrane, metabolic incorporation of the chemical reporter)",Klebsiella pneumoniae [3],+
same,"labeling (fluorescence on membrane, metabolic incorporation of the chemical reporter)",Escherichia coli K12,+
same,"labeling (fluorescence on membrane, metabolic incorporation of the chemical reporter)",[4],+
same,assimilation by the bacteria (in words),[5],did not assimilate
same,"labeling (fluorescence on membrane, metabolic incorporation of the chemical reporter)",[5]; [11],−
same,assimilation by the bacteria (in words),Neisseria gonorrhoeae,did not assimilate
same,"labeling (fluorescence on membrane, metabolic incorporation of the chemical reporter)",Neisseria gonorrhoeae; [11],−
same,"labeling (fluorescence on membrane, metabolic incorporation of the chemical reporter)",[6],+
same,"labeling (fluorescence on membrane, metabolic incorporation of the chemical reporter)",Vibrio cholerae,+
same,"labeling (fluorescence on membrane, metabolic incorporation of the chemical reporter)",[7],−
same,"labeling (fluorescence on membrane, metabolic incorporation of the chemical reporter)",Serratia marcescens [8],+
same,assimilation by the bacteria (in words),Staphylococcus aureus,did not assimilate
same,"labeling (fluorescence on membrane, metabolic incorporation of the chemical reporter)",Staphylococcus aureus; [11],−
same,"labeling (fluorescence on membrane, metabolic incorporation of the chemical reporter)",Proteus mirabilis,+
same,"labeling (fluorescence on membrane, metabolic incorporation of the chemical reporter)",[9],+
same,"labeling (fluorescence on membrane, metabolic incorporation of the chemical reporter)",Klebsiella pneumoniae [10],+
same,assimilation by the bacteria (in words),Listeria monocytogenes ½; Listeria monocytogenes (strain not given),did not assimilate
same,"labeling (fluorescence on membrane, metabolic incorporation of the chemical reporter)","Listeria monocytogenes ½; Listeria monocytogenes ½, compound 10 mM, 24 hours, fluorochrome-alkyne click 30 minutes",−
same,assimilation by the bacteria (in words),Micrococcus luteus,did not assimilate
same,"labeling (fluorescence on membrane, metabolic incorporation of the chemical reporter)",Micrococcus luteus; [11],−
same,"labeling (fluorescence on membrane, metabolic incorporation of the chemical reporter)",Escherichia coli O86,+
same,"labeling (fluorescence on membrane, metabolic incorporation of the chemical reporter)",Providenda stuartii,+
same,assimilation by the bacteria (in words),Enterococcus faecalis,did not assimilate
same,"labeling (fluorescence on membrane, metabolic incorporation of the chemical reporter)",Enterococcus faecalis; [11],−
